Reference: article PMC6440985, “Heterogeneous drug tissue binding in brain regions of rats, Alzheimer’s patients and controls: impact on translational drug development” (Scientific Reports, 2019)
Where two headings read alike, the source gives them in different places.

Assays:
[1] = rat, brain homogenate
[2] = on average; according to prior information; cited from earlier work
in vitro = conditions: Sprague-Dawley, rat, brain homogenate
[3] = Regional brain tissue binding by equilibrium dialysis, human post-mortem brain homogenate (control and AD donors); format: in vitro ADME; conditions: for fu,brain,ROI in CRB of AD patients compared to rat CRB: AD patients versus healthy Sprague-Dawley rats; for fraction unbound at 6 h, 1 µM: human, post-mortem brain tissue homogenate
[4] = design: method as in Loryan et al.[23]; conditions: Rat, ref Loryan et al.[23], cited from earlier work; for fu,brain,ROI Mean: biological replicates; for fu,brain,ROI Median: technical replicates
[5] = AD donors, BG, pH 7.4, AD donors, BG, biological replicates, 1 µM, 6 h, 37 °C, read-out: fu,brain,ROI Mean
[6] = AD donors, BG, pH 7.4, AD donors, BG, technical replicates, 1 µM, 6 h, 37 °C, read-out: fu,brain,ROI Median
[7] = AD donors, CRB, pH 7.4, AD donors, CRB, biological replicates, 1 µM, 6 h, 37 °C, read-out: fu,brain,ROI Mean
[8] = AD donors, CRB, pH 7.4, AD donors, CRB, technical replicates, 1 µM, 6 h, 37 °C, read-out: fu,brain,ROI Median
[9] = AD donors, FrCx, pH 7.4, AD donors, FrCx, biological replicates, 1 µM, 6 h, 37 °C, read-out: fu,brain,ROI Mean
[10] = AD donors, FrCx, pH 7.4, AD donors, FrCx, technical replicates, 1 µM, 6 h, 37 °C, read-out: fu,brain,ROI Median
[11] = AD donors, PrCx, pH 7.4, AD donors, PrCx, technical replicates, 1 µM, 6 h, 37 °C, read-out: fu,brain,ROI Median
[12] = control donors, BG, pH 7.4, Control donors, BG, biological replicates, 1 µM, 6 h, 37 °C, read-out: fu,brain,ROI Mean
[13] = control donors, BG, pH 7.4, Control donors, BG, technical replicates, 1 µM, 6 h, 37 °C, read-out: fu,brain,ROI Median
[14] = control donors, CRB, pH 7.4, Control donors, CRB, biological replicates, 1 µM, 6 h, 37 °C, read-out: fu,brain,ROI Mean
[15] = control donors, CRB, pH 7.4, Control donors, CRB, technical replicates, 1 µM, 6 h, 37 °C, read-out: fu,brain,ROI Median
[16] = control donors, FrCx, pH 7.4, Control donors, FrCx, biological replicates, 1 µM, 6 h, 37 °C, read-out: fu,brain,ROI Mean
[17] = control donors, FrCx, pH 7.4, Control donors, FrCx, technical replicates, 1 µM, 6 h, 37 °C, read-out: fu,brain,ROI Median
[18] = control donors, PrCx, pH 7.4, Control donors, PrCx, biological replicates, 1 µM, 6 h, 37 °C, read-out: fu,brain,ROI Mean
[19] = control donors, PrCx, pH 7.4, Control donors, PrCx, technical replicates, 1 µM, 6 h, 37 °C, read-out: fu,brain,ROI Median
[20] = AD group, within-group comparison
[21] = AD donors, PrCx, pH 7.4, AD donors, PrCx, biological replicates, 1 µM, 6 h, 37 °C, read-out: fu,brain,ROI Mean

Row | Structure (SMILES) | between region comparison of fu,brain,ROI [1] | fraction unbound at 6 h, 1 µM (in vitro; pH 7.4, fu,brain,ROI Mean) | fraction unbound at 6 h, 1 µM (in vitro; pH 7.4, fu,brain,ROI Median) | fu,brain,ROI in CRB of AD patients compared to rat CRB [3] | fraction unbound at 6 h, 1 µM [3, 5] | fraction unbound at 6 h, 1 µM [3, 6] | fraction unbound at 6 h, 1 µM [3, 7] | fraction unbound at 6 h, 1 µM [3, 8] | fraction unbound at 6 h, 1 µM [3, 9] | fraction unbound at 6 h, 1 µM [3, 10] | fraction unbound at 6 h, 1 µM [3, 11] | fraction unbound at 6 h, 1 µM [3, 12] | fraction unbound at 6 h, 1 µM [3, 13] | fraction unbound at 6 h, 1 µM [3, 14] | fraction unbound at 6 h, 1 µM [3, 15] | fraction unbound at 6 h, 1 µM [3, 16] | fraction unbound at 6 h, 1 µM [3, 17] | fraction unbound at 6 h, 1 µM [3, 18] | fraction unbound at 6 h, 1 µM [3, 19] | ratio of fu,brain,ROI in CRB compared to PrCx [3, 20] | also measured
1 | COc1ccc2c(c1)c(CC(=O)O)c(C)n2C(=O)c1ccc(Cl)cc1 [Indomethacin, indomethacin] | no differences in binding | 0.068 | 0.065 | twice as high | 0.089 | 0.089 | 0.149 | 0.116 | 0.103 | 0.095 | 0.08 | 0.073 | 0.071 | 0.113 | 0.109 | 0.088 | 0.088 | 0.079 | 0.083 |  | plasma protein binding exceeding brain tissue binding [2]: 5 fold
2 | CC12CC3CC(C)(C1)CC(N)(C3)C2 [Memantine, memantine] | no differences in binding | 0.076 | 0.073 | twice as high | 0.114 | 0.111 | 0.152 | 0.142 | 0.114 | 0.117 | 0.103 | 0.092 | 0.093 | 0.113 | 0.116 | 0.094 | 0.092 | 0.088 | 0.086 | ≥ 1.5 | fold higher fu,brain,ROI in CRB compared to PrCx ([3]; control group, within-group comparison): ≥ 1.3 fold; fraction unbound at 6 h, 1 µM [3, 21]: 0.099
3 | Cc1nc2n(c(=O)c1CCN1CCC(c3noc4cc(F)ccc34)CC1)CCCC2O (stereo not drawn) [Paliperidone, paliperidone] | no differences in binding |  |  | twice as high | 0.249 | 0.249 | 0.374 |  | 0.237 | 0.216 | 0.224 | 0.186 | 0.192 | 0.217 | 0.207 | 0.197 | 0.198 | 0.189 | 0.183 | ≥ 1.5 | fu,brain,ROI Mean ([4]; BG): 0.128; fu,brain,ROI Median ([4]; BG): 0.128; fu,brain,ROI Mean ([4]; CRB): 0.145; fu,brain,ROI Median ([4]; CRB): 0.143; fu,brain,ROI Mean ([4]; FrCx): 0.144; fu,brain,ROI Median ([4]; FrCx): 0.138; fu,brain,ROI Mean ([4]; HIP): 0.157; fu,brain,ROI Median ([4]; HIP): 0.150; fu,brain,ROI Mean ([4]; WB): 0.141; fu,brain,ROI Median ([4]; WB): 0.151; fu,brain,ROI Median ([3]; AD donors, CRB, technical replicates, 1 µM, 6 h, 37 °C): 0.350; ratio of fu,brain,ROI in CRB compared to BG [3, 20]: 1.4; fold lower BTB in CRB compared to frontal and parietal cortices ([3]; AD patients, average): 1.5 fold; ratio of fu,brain,ROI AD versus control ([3]; CRB, between group comparison): 1.6; regional within-group comparison of fu,brain,ROI ([3]; control group, FrCx, PrCx, BG, CRB): uniform binding; fraction unbound at 6 h, 1 µM [3, 21]: 0.232
